The target in one assay is canine TRPM8 (Canis lupus familiaris, UniProt Q1A7N1). In words: In vitro canine TRPM8 functional assay (Ca2+-sensitive fluorescent dye, icilin activation). Format: cell-based. The note with it: HEK293 cells stably expressing canine TRPM8, icilin-induced Ca2+ response; for IC50: eight-point concentration-response.
In a further assay the test system is Male Sprague Dawley rats. In words: Inhibition of icilin-induced "wet-dog" shakes in rats. The note with it: 10 mg/kg p.o. in 10% HP-β-CD, 60 min before icilin 3.0 mg/kg i.p.; rat wet-dog shakes. Format: in vivo. The method, then:
Male Sprague Dawley rats (220-450 g, Charles River Labs, n=6-9/treatment) were used to evaluate the ability of test compounds to block icilin-induced “wet-dog” shakes (WDS). The test compound was administered in 10% hydroxypropyl-β-cyclodextrin (HP-β-CD), p.o., 60 min before icilin. Icilin was then administered in 10% solutol/H2O, at 3.0 mg/kg, i.p., and spontaneous “wet-dog” shakes were counted 10 min following the icilin injection over a 10-min period.

SMILES strings stand for the structures. Where a name gives a salt, the structure may show the parent alone.

Sequence of canine TRPM8 (Q1A7N1 1-1104): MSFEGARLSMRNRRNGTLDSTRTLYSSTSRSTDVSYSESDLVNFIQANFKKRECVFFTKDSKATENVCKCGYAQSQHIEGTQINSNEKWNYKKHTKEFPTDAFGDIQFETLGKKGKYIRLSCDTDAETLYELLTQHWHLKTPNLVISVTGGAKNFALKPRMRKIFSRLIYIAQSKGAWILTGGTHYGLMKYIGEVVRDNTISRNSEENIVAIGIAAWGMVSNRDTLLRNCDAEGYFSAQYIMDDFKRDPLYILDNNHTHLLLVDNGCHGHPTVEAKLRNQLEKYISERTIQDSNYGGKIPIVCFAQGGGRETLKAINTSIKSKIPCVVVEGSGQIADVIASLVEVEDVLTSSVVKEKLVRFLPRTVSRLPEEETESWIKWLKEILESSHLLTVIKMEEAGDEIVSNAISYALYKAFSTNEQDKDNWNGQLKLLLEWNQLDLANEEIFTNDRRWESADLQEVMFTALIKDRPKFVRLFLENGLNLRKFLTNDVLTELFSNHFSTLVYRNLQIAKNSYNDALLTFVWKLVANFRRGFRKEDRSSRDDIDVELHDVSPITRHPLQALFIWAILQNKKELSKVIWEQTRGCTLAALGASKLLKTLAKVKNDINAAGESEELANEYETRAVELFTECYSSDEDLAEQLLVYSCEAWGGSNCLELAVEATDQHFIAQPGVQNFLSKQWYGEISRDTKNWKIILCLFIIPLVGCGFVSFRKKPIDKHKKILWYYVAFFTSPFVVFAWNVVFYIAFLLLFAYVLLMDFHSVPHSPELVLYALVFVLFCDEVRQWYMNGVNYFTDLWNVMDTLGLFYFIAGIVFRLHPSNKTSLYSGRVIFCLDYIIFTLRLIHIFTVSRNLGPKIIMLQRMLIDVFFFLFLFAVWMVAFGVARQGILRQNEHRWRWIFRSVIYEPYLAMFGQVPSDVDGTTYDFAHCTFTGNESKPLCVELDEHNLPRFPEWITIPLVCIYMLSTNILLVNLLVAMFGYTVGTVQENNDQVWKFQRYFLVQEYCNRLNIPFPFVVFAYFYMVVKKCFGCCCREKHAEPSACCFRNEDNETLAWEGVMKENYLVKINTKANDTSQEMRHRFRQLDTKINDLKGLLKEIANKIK

In the case of `COc1nc(-c2ccccc2Cl)cc2nc(-c3c(C#N)c(C(C)(C)C)nn3C)[nH]c12.CS(=O)(=O)O` [Compound 17, 3-tert-Butyl-5-[6-(2-chloro-phenyl)-4-methoxy-3H-imidazo[4,5-c]pyridine-2-yl]-1-methyl-1H-pyrazole-4-carbonitrile methanesulfonic acid salt], on canine TRPM8 (0.2 μM compound), the inhibition at 0.2 µM worked out at 99%. Also, half-maximal inhibition at canine TRPM8 (IC50) was put at 1.7 nM. In addition, the “Icilin % Inhibition @ 1.5 h, 10 mg/kg” value with Male Sprague Dawley rats came to 38%.
As to `Cn1nc(C(C)(C)C)c(Cl)c1-c1nc2cc(-c3ccccc3C(F)(F)F)nc(OCC(=O)O)c2[nH]1` [Compound 88, [2-(5-tert-Butyl-4-chloro-2-methyl-2H-pyrazol-3-yl)-6-(2-trifluoromethyl-phenyl)-3H-imidazo[4,5-c]pyridin-4-yloxy]-acetic acid], at canine TRPM8 (0.2 μM compound), the inhibition at 0.2 µM is 36%.
The molecule `Cn1nc(C(C)(C)C)c(Cl)c1-c1nc2cc(-c3ccccc3Cl)nc(OCC(F)(F)F)c2[nH]1` [Compound 89, 2-(5-tert-Butyl-4-chloro-2-methyl-2H-pyrazol-3-yl)-6-(2-chlorophenyl)-4-(2,2,2-trifluoro-ethoxy)-3H-imidazo[4,5-c]pyridine sodium salt] gave an inhibition at 0.2 µM at canine TRPM8 (0.2 μM compound) of 100%. Also, on canine TRPM8, inhibition was half-maximal at 0.53 nM (IC50).
In turn, `Cn1nc(C(C)(C)C)c(Cl)c1-c1nc2cc(-c3ccccc3OC(F)(F)F)nc(OCC(F)(F)F)c2[nH]1` [Compound 90, 2-(5-tert-Butyl-4-chloro-2-methyl-2H-pyrazol-3-yl)-4-(2,2,2-trifluoro-ethoxy)-6-(2-trifluoromethoxyphenyl)-3H-imidazo[4,5-c]pyridine sodium salt] had an inhibition at 0.2 µM against canine TRPM8 (0.2 μM compound) of 99%. At canine TRPM8, this molecule registered an IC50 of 0.73 nM.
The matching figures for `Cn1nc(C(C)(C)C)c(Cl)c1-c1nc2cc(-c3ccccc3F)nc(OCC(F)(F)F)c2[nH]1` [Compound 91, 2-(5-tert-Butyl-4-chloro-2-methyl-2H-pyrazol-3-yl)-6-(2-fluorophenyl)-4-(2,2,2-trifluoroethoxy)-3H-imidazo[4,5-c]pyridine sodium salt]: 99% and 3.8 nM.
The matching figures for `CC(C)Oc1nc(-c2ccccc2F)cc2nc(-c3c(Cl)c(C(C)(C)C)nn3C)[nH]c12` [Compound 92, 2-(5-tert-Butyl-4-chloro-2-methyl-2H-pyrazol-3-yl)-6-(2-fluorophenyl)-4-isopropoxy-3H-imidazo[4,5-c]pyridine sodium salt]: 99% and 2.8 nM.
The matching figures for `CC(C)Oc1nc(-c2ccccc2OC(F)(F)F)cc2nc(-c3c(Cl)c(C(C)(C)C)nn3C)[nH]c12` [Compound 93, 2-(5-tert-Butyl-4-chloro-2-methyl-2H-pyrazol-3-yl)-4-isopropoxy-6-(2-trifluoromethoxyphenyl)-3H-imidazo[4,5-c]pyridine sodium salt]: 99% and 1.2 nM.
In turn, `Cn1nc(C(C)(C)C)c(Cl)c1-c1nc2nc(-c3ccccc3OC(F)(F)F)cnc2[nH]1` [Compound 94, 2-(5-tert-Butyl-4-chloro-2-methyl-2H-pyrazol-3-yl)-5-(2-trifluoromethoxy-phenyl)-1H-imidazo[4,5-b]pyrazine] returned an inhibition at 0.2 µM against canine TRPM8 (0.2 μM compound) of 99%. The molecule also came in with an IC50 against canine TRPM8 of 22.5 nM.
The matching figures for `Cn1nc(C(C)(C)C)c(Cl)c1-c1nc2nc(-c3ccccc3C(F)(F)F)cnc2[nH]1` [Compound 95, 2-(5-tert-butyl-4-chloro-2-methyl-2H-pyrazol-3-yl)-6-(2-trifluoromethyl-phenyl)-1H-imidazo[4,5-b]pyrazine]: 100% and 27 nM.
Taken in the same sequence, the figures for `COc1nc(-c2ccccc2Cl)cc2nc(-c3csc(C(C)C)c3)[nH]c12` [Compound 98, 6-(2-Chloro-phenyl)-2-(5-isopropyl-thiophen-3-yl)-4-methoxy-3H-imidazo[4,5-c]pyridine] were 100% and 14 nM.
Taken in the same sequence, the figures for `COc1nc(-c2ccccc2Cl)cc2nc(-c3cnn(C(C)(C)C)c3C)[nH]c12` [Compound 100, 2-(1-tert-Butyl-5-methyl-1H-pyrazol-4-yl)-6-(2-chloro-phenyl)-4-methoxy-3H-imidazo[4,5-c]pyridine sodium salt] were 94% and 61.3 nM.
On canine TRPM8 (0.2 μM compound), `COc1nc(-c2ccccc2Cl)cc2nc(-c3cnn(C(C)(C)C)c3)[nH]c12` [Compound 102, 2-(1-tert-Butyl-1H-pyrazol-4-yl)-6-(2-chloro-phenyl)-4-methoxy-3H-imidazo[4,5-c]pyridine sodium salt] showed an inhibition at 0.2 µM of 70%. Moreover, the IC50 against canine TRPM8 was 120 nM.
In the case of `Cn1nc(C(C)(C)C)c(Cl)c1-c1nc2nc(-c3ccccc3Cl)cnc2[nH]1` [Compound 110], on canine TRPM8 (0.2 μM compound), the “% Inh @ 0.2 μM” value was 99%. This molecule also came in with a concentration for half-maximal inhibition (IC50) against canine TRPM8 of 24 nM.
Regarding `COc1nc(-c2ccccc2Cl)cc2nc(-c3nc(C(C)(C)C)cn3C)[nH]c12` [Compound 111, 2-(4-tert-Butyl-1-methyl-1H-imidazol-2-yl)-6-(2-chloro-phenyl)-4-methoxy-3H-imidazo[4,5-c]pyridine], the inhibition at 0.2 µM against canine TRPM8 (0.2 μM compound) worked out at 62%.
Molecule `COCCOc1cc(-c2ccccc2C(F)(F)F)nc2nc(-c3cc(C(C)(C)C)nn3C)[nH]c12` [Compound 112, 2-(5-tert-Butyl-2-methyl-2H-pyrazol-3-yl)-7-(2-methoxy-ethoxy)-5-(2-trifluoromethyl-phenyl)-1H-imidazo[4,5-b]pyridine methanesulfonic acid salt] came in with an inhibition at 0.2 µM against canine TRPM8 (0.2 μM compound) of 98%. In addition, at canine TRPM8, the IC50 stood at 19 nM.
In turn, `Cn1nc(C(C)(C)C)c(Cl)c1-c1nc2nc(-c3ccccc3C(F)(F)F)cc(Cl)c2[nH]1` [compound 5, hydrochloride] displayed an inhibition at 0.2 µM on canine TRPM8 (0.2 μM compound) of 99%.
Still for that read-out and setting: the result for `Cn1nc(C(C)(C)C)c(Cl)c1-c1nc2cc(-c3ccccc3C(F)(F)F)nc(C#N)c2[nH]1` [compound 60, 2-(5-tert-butyl-4-chloro-2-methyl-2H-pyrazol-3-yl)-6-(2-trifluoromethyl-phenyl)-3H-imidazo[4,5-c]pyridine-4-carbonitrile benzenesulfonic acid salt] reads 99%.

Broadly, the inhibition is the drop in the measured response relative to a control, in per cent. High values mean strong suppression, low ones little suppression. One may read the IC50 as the concentration needed to halve the response being measured. Low values mean inhibition by little substance, high ones a need for much substance.

Values taken from patent publication US9409915B2, “Substituted aza-bicyclic imidazole derivatives useful as TRPM8 receptor modulators” (Janssen Pharmaceutica NV, priority 2010, dated 2016).
